From paper PMC10331583, “Control of fibrosis with enhanced safety via asymmetric inhibition of prolyl‐tRNA synthetase 1” (EMBO Molecular Medicine, 2023)
“And” between values parts separate entries of the source, which are not always exact repeats. Identical values can stand only once. Like-named read-outs stand apart in the source and are kept apart here.

Columns and labels:
WI‐26 VA4 cells [1] = test: CellTiter‐Glo assay (cytotoxicity); settings: log(inhibitor) vs. response, variable slope (four parameters); concentration in nM
[2] = CellTiter‐Glo assay (cytotoxicity); settings: human, WI-26 VA4 cells, CC50 (CellTiter-Glo), 72 h (Fig 5B)
WI‐26 VA4 cells [3] = test: Puromycin incorporation assay; format: cell-based, human; settings: for activity at 0.001 µM: WI26VA4, 1 nM; for activity at 0.01 µM: WI26VA4, 10 nM; for activity at 0.03 µM: WI26VA4, 30 nM; for activity at 0.1 µM: WI26VA4, 100 nM; for activity at 1 µM: WI26VA4, 1000 nM; for activity at 3 µM: WI26VA4, 3000 nM
Method: After being rinsed with cold PBS twice, the cells were collected and resuspended in 200 μl of the carbonate bicarbonate buffer (Sigma Aldrich, C3041‐50CAP) with protease inhibitor. The cell lysates were obtained by sonication and centrifugation at 20,000 g for 15 min at 4°C. After protein quantification using a Pierce™ BCA Protein Assay Kit (Thermo Fisher Scientific, 23225), 400 ng of the proteins was coated to ELISA plates for 18 h at 4°C. […] The plates were rinsed with the washing buffer for three times after each antibody incubation step. […] The amount of puromycin incorporated in proteins was determined by measuring the absorbance at 450 nm (reference wavelength at 620 nm). Experimental values marked in red with strikethrough text in the Figure Source Data file were excluded from the analysis. These values were determined by considering the values of biological and technical replicates under the same condition, as well as the values at the former and later chemical concentrations.

[4] = system: TNT Quick Coupled Transcription/Translation System (luciferase synthesis); format: biochemical
[5] = Homo sapiens, read-out: Puromycin, % of control, average
[6] = Homo sapiens, read-out: Puromycin, % of control, single replicate

SMILES: O=C(CC1NCCCC1O)Cn1cnc2cc(Br)c(Cl)cc2c1=O (stereo not shown) [HF, Halofuginone, reference compound]
- CellTiter-Glo LogIC50 (best-fit value) (WI‐26 VA4 cells [1]): 1.708
- CC50 at 72 h [2]: 51 nM
- Puromycin, % of control, single replicate (WI‐26 VA4 cells [3]; 3 nM, 0.003 µM): 87.66 % of control and 110.89 % of control and 102.72 % of control and 101.10 % of control and 86.71 % of control and 84.36 % of control and 98.41 % of control and 95.09 % of control and 95.08 % of control and 108.41 % of control and 105.39 % of control and 104.60 % of control
- Puromycin, % of control, single replicate (WI‐26 VA4 cells [3]; 10 nM, 0.01 µM): 100.34 % of control and 96.77 % of control and 97.76 % of control and 87.44 % of control and 83.58 % of control and 96.23 % of control and 94.53 % of control
- Puromycin, % of control, single replicate (WI‐26 VA4 cells [3]; 30 nM, 0.03 µM): 113.27 % of control and 109.87 % of control and 110.26 % of control and 116.66 % of control and 114.17 % of control and 107.05 % of control and 108.24 % of control and 108.11 % of control and 111.56 % of control and 111.23 % of control and 110.22 % of control
- Puromycin, % of control, single replicate (WI‐26 VA4 cells [3]; 100 nM, 0.1 µM): 90.48 % of control and 92.59 % of control and 92.61 % of control and 84.84 % of control and 84.75 % of control and 85.14 % of control and 85.25 % of control and 85.34 % of control and 84.22 % of control
- Puromycin, % of control, single replicate (WI‐26 VA4 cells [3]; 300 nM, 0.3 µM): 10.84 % of control and 35.41 % of control and 34.99 % of control and 10.87 % of control and 10.33 % of control and 31.26 % of control and 32.35 % of control and 31.90 % of control and 32.62 % of control and 32.23 % of control and 32.21 % of control
- Puromycin, % of control, single replicate (WI‐26 VA4 cells [3]; 3000 nM, 3 µM): 3.08 % of control (2×) and 2.96 % of control and 3.28 % of control and 2.21 % of control and 2.18 % of control and 2.60 % of control and 2.20 % of control and 3.16 % of control and 3.05 % of control
- Puromycin, % of control, single replicate (WI‐26 VA4 cells [3]; 10000 nM, 10 µM): 3.89 % of control and 1.98 % of control and 2.07 % of control and 2.17 % of control and 4.12 % of control and 4.05 % of control and 1.27 % of control and 1.14 % of control and 1.39 % of control and 2.12 % of control and 2.04 % of control
- Puromycin, % of control, single replicate (WI‐26 VA4 cells [3]; 30000 nM, 30 µM): 2.04 % of control and 1.64 % of control and 1.93 % of control and 3.75 % of control and 1.32 % of control and 1.84 % of control and 1.82 % of control and 1.41 % of control
- activity at 0.001 µM (WI‐26 VA4 cells [3]; [5]): 102%
- activity at 0.001 µM (WI‐26 VA4 cells [3]; [6]): 101%
- activity at 0.003 µM (WI‐26 VA4 cells [3]; Homo sapiens, WI26VA4, 3 nM, read-out: Puromycin, % of control, average): 98.4%
- activity at 0.01 µM (WI‐26 VA4 cells [3]; [5]): 94.8%
- activity at 0.01 µM (WI‐26 VA4 cells [3]; [6]): 86.6%
- activity at 0.03 µM (WI‐26 VA4 cells [3]; [5]): 111%
- activity at 0.03 µM (WI‐26 VA4 cells [3]; [6]): 117%
- activity at 0.1 µM (WI‐26 VA4 cells [3]; [5]): 88%
- activity at 0.1 µM (WI‐26 VA4 cells [3]; [6]): 94.6%
- activity at 0.3 µM (WI‐26 VA4 cells [3]; Homo sapiens, WI26VA4, 300 nM, read-out: Puromycin, % of control, average): 26.8%
- activity at 1 µM (WI‐26 VA4 cells [3]; [5]): 3.03%
- activity at 1 µM (WI‐26 VA4 cells [3]; [6]): 2.13%
- activity at 3 µM (WI‐26 VA4 cells [3]; [5]): 2.66%
- activity at 3 µM (WI‐26 VA4 cells [3]; [6]): 2.13%
- activity at 10 µM (WI‐26 VA4 cells [3]; Homo sapiens, WI26VA4, 10000 nM, read-out: Puromycin, % of control, average): 2.36%
- activity at 30 µM (WI‐26 VA4 cells [3]; Homo sapiens, WI26VA4, 30000 nM, read-out: Puromycin, % of control, average): 1.87%
- IC50 (WI‐26 VA4 cells [3]; Homo sapiens, WI26VA4, log(inhibitor) vs. response, variable slope (four parameters), read-out: Puromycin, IC50 (best-fit value)): 200 nM
- Puromycin, HillSlope (best-fit value) (WI‐26 VA4 cells [3]; log(inhibitor) vs. response, variable slope (four parameters)): -2.795
- Puromycin, LogIC50 (best-fit value) (WI‐26 VA4 cells [3]; log(inhibitor) vs. response, variable slope (four parameters), concentration in nM): 2.301
- TNT-luciferase LogIC50 (best-fit value) [4]: 2.211
- TNT-luciferase % of control, average ([4]; 6 nM): 106.95 % of control
- TNT-luciferase % of control ([4]; 6 nM, 0.006 µM): 109.98 % of control and 110.97 % of control and 123.24 % of control and 104.46 % of control and 101.11 % of control and 91.92 % of control
- TNT-luciferase % of control, average ([4]; 10 nM): 114.54 % of control
- TNT-luciferase % of control ([4]; 10 nM, 0.01 µM): 118.82 % of control and 112.93 % of control and 98.69 % of control and 124.51 % of control and 116.16 % of control
- TNT-luciferase % of control, average ([4]; 20 nM): 104.66 % of control
- TNT-luciferase % of control ([4]; 20 nM, 0.02 µM): 102.13 % of control and 100.65 % of control and 102.62 % of control and 110.31 % of control and 109.47 % of control and 102.79 % of control
- TNT-luciferase % of control, average ([4]; 36 nM): 110.74 % of control
- TNT-luciferase % of control ([4]; 36 nM, 0.036 µM): 113.42 % of control and 108.02 % of control and 129.62 % of control and 107.80 % of control and 102.79 % of control
- TNT-luciferase % of control, average ([4]; 60 nM): 109.84 % of control
- TNT-luciferase % of control ([4]; 60 nM, 0.06 µM): 112.44 % of control and 104.58 % of control and 103.60 % of control and 118.66 % of control and 113.65 % of control and 106.13 % of control
- TNT-luciferase % of control, average ([4]; 100 nM): 95.21 % of control
- TNT-luciferase % of control ([4]; 100 nM, 0.1 µM): 67.76 % of control and 70.21 % of control and 67.27 % of control and 122.01 % of control and 126.18 % of control and 117.83 % of control
- TNT-luciferase % of control, average ([4]; 200 nM): 33.45 % of control
- TNT-luciferase % of control, average ([4]; 360 nM): 4.01 % of control
- TNT-luciferase % of control, average ([4]; 600 nM): 0.26 % of control
- TNT-luciferase % of control, average ([4]; 1000 nM): 0.09 % of control
- TNT-luciferase % of control, average ([4]; 2000 nM): 0.02 % of control
- TNT-luciferase % of control ([4]; 2000 nM, 2 µM): 0.04 % of control
- IC50 ([4]; read-out: TNT-luciferase IC50 (best-fit value)): 163 nM
